# System: SARS-CoV-2
# Assay: microbe, parasite or virus in culture
# Details: Severe acute respiratory syndrome coronavirus 2, Vero C1008, 48 h
SMILES,IC50,IC50 (read-out: pIC50 (converted))
COc1ccccc1[C@H](Cn1c(=O)n(C(C)(C)C(=O)O)c(=O)c2c(C)c(-c3ncco3)sc21)OC1CCOCC1 [FIRSOCOSTAT],> 20 µM,> 20 µM
O=c1cc(-c2ccccc2)oc2ccccc12 [FLAVONE],> 20 µM,> 20 µM
O=c1c(O)c(-c2ccccc2)oc2ccccc12 [FLAVONOL],> 20 µM,> 20 µM
Cc1c(-c2ccccc2)oc2c(C(=O)OCCN3CCCCC3)cccc2c1=O [FLAVOXATE],> 20 µM,> 20 µM
CN1CCC(O)(c2ccc(F)cc2)C(C(=O)c2ccc(F)cc2)C1 (stereo not given) [FLAZALONE],> 20 µM,> 20 µM
O=C(NCC1CCCCN1)c1cc(OCC(F)(F)F)ccc1OCC(F)(F)F (stereo not given) [FLECAINIDE],> 20 µM,> 20 µM
CN1CCN(c2c(F)cc3c(=O)c(C(=O)O)cn(CCF)c3c2F)CC1 [FLEROXACIN],> 20 µM,> 20 µM
CC(C)(CNC(N)=O)NCC(O)COC(=O)c1ccccc1F (stereo not given) [FLESTOLOL],> 20 µM,> 20 µM
O=c1[nH]c2ccccc2n1CCN1CCN(c2cccc(C(F)(F)F)c2)CC1 [FLIBANSERIN],> 20 µM,> 20 µM
COc1ccc(Cl)cc1[C@]1(F)C(=O)Nc2cc(C(F)(F)F)ccc21 [FLINDOKALNER],> 20 µM,> 20 µM
O=C(OCC(O)CO)c1ccccc1Nc1ccnc2c(C(F)(F)F)cccc12 (stereo not given) [FLOCTAFENINE],> 20 µM,> 20 µM
CNc1ccc(/C=C/c2ccc(OCCOCCOCCF)nc2)cc1 [FLORBETAPIR],> 20 µM,> 20 µM
Fc1ccc(-c2ccc3c(c2)[nH]c2ccncc23)cn1 [FLORTAUCIPIR],> 20 µM,> 20 µM
Cn1cc([S+](C)[O-])c(=O)c2ccc(F)cc21 (stereo not given) [FLOSEQUINAN],> 20 µM,> 20 µM
Cc1onc(-c2c(F)cccc2Cl)c1C(=O)N[C@@H]1C(=O)N2[C@@H]1SC(C)(C)[C@@H]2C(=O)O [FLOXACILLIN],> 20 µM,> 20 µM
O=c1[nH]c(=O)n([C@H]2C[C@H](O)[C@@H](CO)O2)cc1F [FLOXURIDINE],> 20 µM,> 20 µM
COc1ccccc1N1CCN(CCCC(=O)c2ccc(F)cc2)CC1 [FLUANISONE],> 20 µM,> 20 µM
COC(=O)Nc1nc2cc(C(=O)c3ccc(F)cc3)ccc2[nH]1 [FLUBENDAZOLE],> 20 µM,> 20 µM
CN(C)C1CCc2[nH]c3c(F)cc(F)cc3c2C1 (stereo not given) [FLUCINDOLE],> 20 µM,> 20 µM
OC(Cn1cncn1)(Cn1cncn1)c1ccc(F)cc1F [FLUCONAZOLE],> 20 µM,> 20 µM
Nc1nc(=O)[nH]cc1F [FLUCYTOSINE],> 20 µM,> 20 µM
Nc1nc(F)nc2c1ncn2[C@@H]1O[C@H](COP(=O)(O)O)[C@@H](O)[C@@H]1O [FLUDARABINE PHOSPHATE],> 20 µM,> 20 µM
O=C(C[n+]1ccn(CC(OCc2ccc(Cl)cc2Cl)c2ccc(Cl)cc2Cl)c1)c1ccc(F)cc1 (stereo not given) [FLUDAZONIUM],> 20 µM,> 20 µM
CN1C(=O)CN=C(c2ccccc2F)c2cc(Cl)ccc21 [FLUDIAZEPAM],> 20 µM,> 20 µM
N#Cc1c[nH]cc1-c1cccc2c1OC(F)(F)O2 [FLUDIOXONIL],> 20 µM,> 20 µM

SMILES,IC50,IC50 (read-out: pIC50 (converted))
O=C(O)c1ccccc1Nc1cccc(C(F)(F)F)c1 [FLUFENAMIC ACID],> 20 µM,> 20 µM
CC(=O)Oc1ccc(-c2ccc(F)cc2)cc1C(=O)O [FLUFENISAL],> 20 µM,> 20 µM
Cn1c(=O)c2c(ncn2CCN2CCC(C(=O)c3ccc(F)cc3)CC2)n(C)c1=O [FLUFYLLINE],> 20 µM,> 20 µM
O=C1c2ccccc2C(=O)C1c1ccc(F)cc1 [FLUINDIONE],> 20 µM,> 20 µM
CCOC(=O)c1ncn2c1CN(C)C(=O)c1cc(F)ccc1-2 [FLUMAZENIL],> 20 µM,> 20 µM
CC1CCc2cc(F)cc3c(=O)c(C(=O)O)cn1c23 (stereo not given) [FLUMEQUINE],> 20 µM,> 20 µM
C[C@@H]1C[C@H]2[C@@H]3C[C@H](F)C4=CC(=O)C=C[C@]4(C)[C@@]3(F)[C@@H](O)C[C@]2(C)[C@@]1(O)C(=O)CO [FLUMETHASONE],> 20 µM,> 20 µM
NC1=NCC(c2ccc(C(F)(F)F)cc2)O1 (stereo not given) [FLUMINOREX],> 20 µM,> 20 µM
COc1ccc(-c2nc(C(F)(F)F)[nH]c2-c2ccc(OC)cc2)cc1 [FLUMIZOLE],> 20 µM,> 20 µM
O=[N+]([O-])c1cnc(-c2ccc(F)cc2)n1CCO [FLUNIDAZOLE],> 20 µM,> 20 µM
CC1(C)O[C@@H]2C[C@H]3[C@@H]4C[C@H](F)C5=CC(=O)C=C[C@]5(C)[C@H]4[C@@H](O)C[C@]3(C)[C@]2(C(=O)CO)O1 [FLUNISOLIDE],> 20 µM,> 20 µM
CN1C(=O)CN=C(c2ccccc2F)c2cc([N+](=O)[O-])ccc21 [FLUNITRAZEPAM],> 20 µM,> 20 µM
Cc1c(Nc2ncccc2C(=O)O)cccc1C(F)(F)F [FLUNIXIN],> 20 µM,> 20 µM
CC1(C)O[C@@H]2C[C@H]3[C@@H]4C[C@H](F)C5=CC(=O)C=C[C@]5(C)[C@@]4(F)[C@@H](O)C[C@]3(C)[C@]2(C(=O)CO)O1 [FLUOCINOLONE ACETONIDE],> 20 µM,> 20 µM
CC(=O)OCC(=O)[C@@]12OC(C)(C)O[C@@H]1C[C@H]1[C@@H]3C[C@H](F)C4=CC(=O)C=C[C@]4(C)[C@@]3(F)[C@@H](O)C[C@@]12C [FLUOCINONIDE],> 20 µM,> 20 µM
O=c1[nH]cc(F)c(=O)[nH]1 [FLUOROURACIL],> 20 µM,> 20 µM
CNCCC(Oc1ccc(C(F)(F)F)cc1)c1ccccc1 (stereo not given) [FLUOXETINE],> 20 µM,> 20 µM
CN1CCN(C2=Nc3cc(F)ccc3Cc3ccccc32)CC1 [FLUPERLAPINE],> 20 µM,> 20 µM
CCCCCCCCCC(=O)OCCN1CCN(CCCN2c3ccccc3Sc3ccc(C(F)(F)F)cc32)CC1 [FLUPHENAZINE DECANOATE],> 20 µM,> 20 µM
CCCCCCC(=O)OCCN1CCN(CCCN2c3ccccc3Sc3ccc(C(F)(F)F)cc32)CC1 [FLUPHENAZINE ENANTHATE],> 20 µM,> 20 µM
Cc1ccc2c(-c3ccc(F)cc3)nc(=O)n(C(C)C)c2c1 [FLUPROQUAZONE],> 20 µM,> 20 µM
CC1(C)O[C@@H]2C[C@H]3[C@@H]4C[C@H](F)C5=CC(=O)CC[C@]5(C)[C@H]4[C@@H](O)C[C@]3(C)[C@]2(C(=O)CO)O1 [FLURANDRENOLIDE],> 20 µM,> 20 µM
CCN(CC)CCN1C(=O)CN=C(c2ccccc2F)c2cc(Cl)ccc21 [FLURAZEPAM],> 20 µM,> 20 µM
O=C(O)c1cccc2c1Nc1cc(C(F)(F)F)ccc1S2 [FLUTIAZIN],> 20 µM,> 20 µM
CCC(=O)O[C@]1(C(=O)SCF)[C@H](C)C[C@H]2[C@@H]3C[C@H](F)C4=CC(=O)C=C[C@]4(C)[C@@]3(F)[C@@H](O)C[C@@]21C [FLUTICASONE PROPIONATE],> 20 µM,> 20 µM

# Source: ChEMBL document CHEMBL4651402, “Screening of ~5500 FDA-approved drugs and clinical candidates for anti-SARS-CoV-2 activity” (2021)
